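Assay format: 96-well plates, 48-hour exposure. TGI denotes the concentration required for complete inhibition of growth.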
Columns and labels:
Test in all cases: NCI-60 cell line screen, 48 h
[1] = system: U251 CNS
[2] = system: A498 renal
[3] = system: UO-31 renal
[4] = system: SR leukemia
[5] = system: SN12C renal
[6] = system: SK-MEL-28 melanoma
[7] = system: TK-10 renal
[8] = system: SF-295 CNS
[9] = system: MALME-3M melanoma
[10] = system: MDA-MB-435
[11] = system: HOP-92 NSCLC
[12] = system: COLO 205 colon
[13] = system: SNB-19 CNS
[14] = system: HCT-116 colon
[15] = system: UACC-257 melanoma
[16] = system: MOLT-4 leukemia
[17] = system: SF-268 CNS
[18] = system: MDA-N
[19] = system: SF-539 CNS
[20] = system: HOP-62 NSCLC
[21] = system: SK-OV-3 ovarian
[22] = system: T-47D breast
[23] = system: OVCAR-4 ovarian
[24] = system: HL-60(TB) leukemia
[25] = system: UACC-62 melanoma
[26] = system: OVCAR-5 ovarian
[27] = system: 786-0 renal
[28] = system: KM12 colon
[29] = system: HCC-2998 colon
[30] = system: CAKI-1 renal
[31] = system: MCF7 breast
[32] = system: NCI-H23 lung
[33] = system: K-562 leukemia
[34] = system: IGROV1 ovarian
[35] = system: SK-MEL-5 melanoma
[36] = system: NCI-H460 lung
[37] = system: SNB-75 CNS
[38] = system: HT29 colon
[39] = system: CCRF-CEM leukemia
[40] = system: MDA-MB-231 breast
[41] = system: A549 NSCLC
[42] = system: SW-620 colon
[43] = system: M14 melanoma
[44] = system: PC-3 prostate
[45] = system: RPMI-8226 leukemia
[46] = system: ACHN renal
[47] = system: LOX IMVI melanoma
[48] = system: BT-549 breast
[49] = system: HS 578T breast
[50] = system: DU-145 prostate
[51] = system: OVCAR-3 ovarian
[52] = system: RXF 393 renal
[53] = system: EKVX NSCLC
[54] = system: NCI-H226 lung
[55] = system: NCI-H522 lung
[56] = system: OVCAR-8 ovarian

Molecule `COc1c(Cl)nc2ccccc2c1N=[N+]=[N-]` has a TGI [1] greater than 100 µM, a TGI [2] of 60.9 µM and a TGI [3] greater than 100 µM. For the same molecule, the TGI [4] was greater than 100 µM, the TGI [5] was greater than 100 µM and the TGI [6] was greater than 100 µM. The TGI [7] was greater than 100 µM, the TGI [8] was greater than 100 µM and the TGI [9] was greater than 100 µM. The TGI [10] was greater than 100 µM, the TGI [11] was greater than 100 µM and the TGI [12] was greater than 100 µM. For the same molecule, the TGI [13] was greater than 100 µM, the TGI [14] was greater than 100 µM and the TGI [15] was greater than 100 µM. For the same molecule, the TGI [16] was greater than 100 µM, the TGI [17] was greater than 100 µM and the TGI [18] was greater than 100 µM. For the same molecule, the TGI [19] was greater than 100 µM, the TGI [20] was greater than 100 µM and the TGI [21] was greater than 100 µM. For the same molecule, the TGI [22] was greater than 100 µM, the TGI [23] was greater than 100 µM and the TGI [24] was greater than 100 µM. The TGI [25] was greater than 100 µM, the TGI [26] was greater than 100 µM and the TGI [27] was greater than 100 µM. It also gave a TGI [28] greater than 100 µM, a TGI [29] greater than 100 µM and a TGI [30] greater than 100 µM. The TGI [31] was greater than 100 µM, the TGI [32] was greater than 100 µM and the TGI [33] was greater than 100 µM. It also gave a TGI [34] greater than 100 µM, a TGI [35] greater than 100 µM and a TGI [36] greater than 100 µM. For the same molecule, the TGI [37] was greater than 100 µM, the TGI [38] was greater than 100 µM and the TGI [39] was greater than 100 µM. It also gave a TGI [40] greater than 100 µM, a TGI [41] greater than 100 µM and a TGI [42] greater than 100 µM. It also gave a TGI [43] greater than 100 µM, a TGI [44] greater than 100 µM and a TGI [45] greater than 100 µM. For the same molecule, the TGI [46] was greater than 100 µM, the TGI [47] was greater than 100 µM and the TGI [48] was 94.8 µM. For the same molecule, the TGI [49] was greater than 100 µM, the TGI [50] was greater than 100 µM and the TGI [51] was greater than 100 µM. It also gave a TGI [52] greater than 100 µM.
In the case of `O=C1CCN(CCC(F)(F)C(F)(F)C(F)(F)C(F)(F)C(F)(F)C(F)(F)F)C(=S)N1CCC(F)(F)C(F)(F)C(F)(F)C(F)(F)C(F)(F)C(F)(F)F`, the TGI [1] is reported as greater than 100 µM, the TGI [2] is reported as greater than 100 µM and the TGI [53] is reported as greater than 100 µM. The TGI [3] was greater than 100 µM, the TGI [4] was greater than 100 µM and the TGI [5] was greater than 100 µM. For the same molecule, the TGI [6] was greater than 100 µM, the TGI [7] was greater than 100 µM and the TGI [8] was greater than 100 µM. It also gave a TGI [9] greater than 100 µM, a TGI [10] greater than 100 µM and a TGI [54] greater than 100 µM. The TGI [11] was greater than 100 µM, the TGI [12] was greater than 100 µM and the TGI [13] was greater than 100 µM. It also gave a TGI [14] greater than 100 µM, a TGI [15] greater than 100 µM and a TGI [16] greater than 100 µM. It also gave a TGI [17] greater than 100 µM, a TGI [18] greater than 100 µM and a TGI [19] greater than 100 µM. For the same molecule, the TGI [20] was greater than 100 µM, the TGI [21] was greater than 100 µM and the TGI [22] was greater than 100 µM. It also gave a TGI [23] greater than 100 µM, a TGI [24] greater than 100 µM and a TGI [25] greater than 100 µM. The TGI [26] was greater than 100 µM, the TGI [27] was greater than 100 µM and the TGI [28] was greater than 100 µM. For the same molecule, the TGI [29] was greater than 100 µM, the TGI [30] was greater than 100 µM and the TGI [31] was greater than 100 µM. For the same molecule, the TGI [32] was greater than 100 µM, the TGI [33] was greater than 100 µM and the TGI [55] was greater than 100 µM. For the same molecule, the TGI [34] was greater than 100 µM, the TGI [35] was greater than 100 µM and the TGI [36] was greater than 100 µM. The TGI [37] was greater than 100 µM, the TGI [38] was greater than 100 µM and the TGI [56] was greater than 100 µM. For the same molecule, the TGI [39] was greater than 100 µM, the TGI [40] was greater than 100 µM and the TGI [41] was greater than 100 µM. For the same molecule, the TGI [42] was greater than 100 µM, the TGI [43] was greater than 100 µM and the TGI [44] was greater than 100 µM. For the same molecule, the TGI [46] was greater than 100 µM, the TGI [48] was greater than 100 µM and the TGI [49] was greater than 100 µM. The TGI [50] was greater than 100 µM, the TGI [51] was greater than 100 µM and the TGI [52] was greater than 100 µM.
